Key:
[1] = DRUGMATRIX: Tumor Necrosis Factor (TNF), Non-Selective radioligand binding (ligand: [125I] TNF-alpha); assay type: cell membranes, Membrane; conditions: u-937; Not Active = under 50% inhibition at 10 µM
[2] = target: Vasopressin V1a receptor (Homo sapiens, UniProt P37288); assay type: cell membranes, Membrane; conditions: hek293; note: in other assays of this panel Not Active means under 50% inhibition at 10 µM
[3] = DRUGMATRIX: Calcium Channel Type L, Phenylalkylamine radioligand binding (ligand: [3H] (-)-Desmethoxyverapamil (D-888)); assay type: cell membranes, Rattus norvegicus, Wistar, Brain, Membrane; conditions: Not Active = under 50% inhibition at 10 µM
[4] = target: Insulin receptor (Rattus norvegicus, UniProt P15127); assay type: cell membranes, Wistar, Liver, Membrane; note: in other assays of this panel Not Active means under 50% inhibition at 10 µM
[5] = target: Melanocortin receptor 5 (Homo sapiens, UniProt P33032); assay type: cell membranes, HEK293, Membrane; conditions: hek293; note: in other assays of this panel Not Active means under 50% inhibition at 10 µM
[6] = target: T1, Amine oxidase [flavin-containing] A (Homo sapiens, UniProt P21397); assay: DRUGMATRIX: Monoamine Oxidase MAO-A enzyme inhibition (substrate: Kynuramine); design: species or system BTI-TN-5B1-4; conditions: bti-tn-5b1-4; Not Active = under 50% inhibition at 10 µM
T1 sequence (P21397 whole entry): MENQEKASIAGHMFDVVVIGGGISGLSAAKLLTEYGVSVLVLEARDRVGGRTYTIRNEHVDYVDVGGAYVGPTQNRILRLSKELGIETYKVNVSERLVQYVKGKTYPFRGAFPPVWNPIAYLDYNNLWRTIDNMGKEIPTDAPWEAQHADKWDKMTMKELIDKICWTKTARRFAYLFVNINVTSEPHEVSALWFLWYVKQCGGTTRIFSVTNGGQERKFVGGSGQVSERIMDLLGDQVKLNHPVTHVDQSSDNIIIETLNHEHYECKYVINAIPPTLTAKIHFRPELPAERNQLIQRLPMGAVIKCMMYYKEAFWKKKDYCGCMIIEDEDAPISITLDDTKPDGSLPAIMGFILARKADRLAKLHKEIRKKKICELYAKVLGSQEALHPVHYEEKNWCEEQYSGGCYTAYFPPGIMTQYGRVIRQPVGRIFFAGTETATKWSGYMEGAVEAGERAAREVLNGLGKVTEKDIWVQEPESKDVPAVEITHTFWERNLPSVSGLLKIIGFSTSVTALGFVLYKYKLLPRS

Vasopressin V1a receptor, sequence (P37288 whole entry): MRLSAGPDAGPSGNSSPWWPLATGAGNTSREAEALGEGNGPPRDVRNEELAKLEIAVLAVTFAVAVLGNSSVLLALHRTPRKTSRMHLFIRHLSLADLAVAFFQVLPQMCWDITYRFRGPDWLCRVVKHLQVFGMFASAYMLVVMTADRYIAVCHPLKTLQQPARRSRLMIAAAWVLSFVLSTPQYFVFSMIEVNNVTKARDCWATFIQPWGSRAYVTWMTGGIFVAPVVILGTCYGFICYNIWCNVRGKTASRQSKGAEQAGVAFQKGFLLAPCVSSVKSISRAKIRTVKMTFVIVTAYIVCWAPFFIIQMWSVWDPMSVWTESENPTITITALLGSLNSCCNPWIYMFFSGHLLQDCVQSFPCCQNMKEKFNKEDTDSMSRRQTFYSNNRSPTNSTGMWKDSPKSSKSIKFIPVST
Insulin receptor, sequence (P15127 27-759 limits assumed): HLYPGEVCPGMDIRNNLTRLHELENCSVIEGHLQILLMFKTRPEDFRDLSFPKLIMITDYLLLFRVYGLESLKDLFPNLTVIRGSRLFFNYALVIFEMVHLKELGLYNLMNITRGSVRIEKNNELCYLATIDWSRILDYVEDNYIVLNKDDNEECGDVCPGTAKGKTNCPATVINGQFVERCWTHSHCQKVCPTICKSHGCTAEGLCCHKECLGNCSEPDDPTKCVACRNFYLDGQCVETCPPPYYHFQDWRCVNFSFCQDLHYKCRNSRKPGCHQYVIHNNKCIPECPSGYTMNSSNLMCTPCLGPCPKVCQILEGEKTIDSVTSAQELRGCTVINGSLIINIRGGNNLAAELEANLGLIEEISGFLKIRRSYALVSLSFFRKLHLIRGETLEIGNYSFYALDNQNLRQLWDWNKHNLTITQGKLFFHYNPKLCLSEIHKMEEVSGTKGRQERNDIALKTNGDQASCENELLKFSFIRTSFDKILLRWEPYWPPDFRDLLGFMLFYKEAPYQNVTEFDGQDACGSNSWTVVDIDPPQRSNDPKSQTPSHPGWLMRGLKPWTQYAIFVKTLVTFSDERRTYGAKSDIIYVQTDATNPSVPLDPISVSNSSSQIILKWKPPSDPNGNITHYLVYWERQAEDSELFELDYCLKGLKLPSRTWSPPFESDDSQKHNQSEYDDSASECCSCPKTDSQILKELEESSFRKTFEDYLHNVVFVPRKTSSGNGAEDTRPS
Insulin receptor, sequence (P15127 764-1383 limits assumed): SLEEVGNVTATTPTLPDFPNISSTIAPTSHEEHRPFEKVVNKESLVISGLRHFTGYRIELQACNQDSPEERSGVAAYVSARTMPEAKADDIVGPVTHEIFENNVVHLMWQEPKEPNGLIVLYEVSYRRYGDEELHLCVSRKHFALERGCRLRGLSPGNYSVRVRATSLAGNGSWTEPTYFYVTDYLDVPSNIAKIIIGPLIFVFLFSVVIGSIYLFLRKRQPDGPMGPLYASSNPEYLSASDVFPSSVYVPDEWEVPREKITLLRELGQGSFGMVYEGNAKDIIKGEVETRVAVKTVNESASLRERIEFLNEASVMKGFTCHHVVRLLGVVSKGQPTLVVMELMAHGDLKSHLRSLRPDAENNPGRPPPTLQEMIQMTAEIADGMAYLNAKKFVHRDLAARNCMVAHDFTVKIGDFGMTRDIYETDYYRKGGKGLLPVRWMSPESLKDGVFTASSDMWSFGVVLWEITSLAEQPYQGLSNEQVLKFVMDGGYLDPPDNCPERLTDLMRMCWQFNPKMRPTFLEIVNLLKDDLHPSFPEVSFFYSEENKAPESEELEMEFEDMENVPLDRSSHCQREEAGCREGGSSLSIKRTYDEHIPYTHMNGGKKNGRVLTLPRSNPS
Melanocortin receptor 5, sequence (P33032 whole entry): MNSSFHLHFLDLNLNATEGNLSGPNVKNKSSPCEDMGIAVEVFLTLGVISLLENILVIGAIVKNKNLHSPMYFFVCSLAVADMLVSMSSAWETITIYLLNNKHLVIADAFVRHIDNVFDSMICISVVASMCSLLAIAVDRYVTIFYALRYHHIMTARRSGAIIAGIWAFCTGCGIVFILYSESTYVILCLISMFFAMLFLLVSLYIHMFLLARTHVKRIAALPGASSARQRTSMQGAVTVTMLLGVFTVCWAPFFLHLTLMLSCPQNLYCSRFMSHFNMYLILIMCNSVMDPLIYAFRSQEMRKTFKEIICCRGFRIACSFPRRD

O=C(c1ccccc1C(F)(F)F)N1CCC(Cc2ccccc2)CC1
Not Active: IC50 [1] | Ki [1] | IC50 [2] | IC50 [3] | Ki [3] | IC50 [4] | IC50 [5] | IC50 [6]

O=C/C=C/c1ccccc1
Not Active: IC50 [1] | Ki [1] | IC50 [2] | IC50 [3] | Ki [3] | IC50 [4] | IC50 [5] | IC50 [6]

Nc1ccc2c3c(cccc13)C(=O)NC2=O
Not Active: IC50 [1] | Ki [1] | IC50 [2] | IC50 [3] | Ki [3] | IC50 [4] | IC50 [5] | IC50 [6]

COc1ccc(C(=O)N2CCCC2=O)cc1
Not Active: IC50 [1] | Ki [1] | IC50 [2] | IC50 [3] | Ki [3] | IC50 [4] | IC50 [5] | IC50 [6]

O=c1cnn([C@@H]2O[C@H](CO)[C@@H](O)[C@H]2O)c(=O)[nH]1 [6-AZAURIDINE]
Not Active: IC50 [1] | Ki [1] | IC50 [2] | IC50 [3] | Ki [3] | IC50 [4] | IC50 [5] | IC50 [6]

CC[C@H](C)[C@H]1O[C@]2(C=C[C@@H]1C)C[C@@H]1C[C@@H](C/C=C(\C)[C@@H](O[C@H]3C[C@H](OC)[C@@H](O[C@H]4C[C@H](OC)[C@@H](O)[C@H](C)O4)[C@H](C)O3)[C@@H](C)/C=C/C=C3\CO[C@@H]4[C@H](O)C(C)=C[C@@H](C(=O)O1)[C@]34O)O2.CO[C@H]1C[C@H](O[C@H]2[C@H](C)O[C@@H](O[C@@H]3/C(C)=C/C[C@@H]4C[C@@H](C[C@]5(C=C[C@H](C)[C@@H](C(C)C)O5)O4)OC(=O)[C@@H]4C=C(C)[C@@H](O)[C@H]5OC/C(=C\C=C\[C@@H]3C)[C@]54O)C[C@@H]2OC)O[C@@H](C)[C@@H]1O [ABAMECTIN]
Not Active: IC50 [1] | Ki [1] | IC50 [2] | IC50 [3] | Ki [3] | IC50 [4] | IC50 [5] | IC50 [6]

NCCCC(O)(P(=O)(O)O)P(=O)(O)O [ALENDRONIC ACID]
Not Active: IC50 [1] | Ki [1] | IC50 [2] | IC50 [3] | Ki [3] | IC50 [4] | IC50 [5] | IC50 [6]

Cc1nnc2n1-c1ccc(Cl)cc1C(c1ccccc1)=NC2 [ALPRAZOLAM]
Not Active: IC50 [1] | Ki [1] | IC50 [2] | IC50 [3] | Ki [3] | IC50 [4] | IC50 [5] | IC50 [6]

Cn1c(=O)c2[nH]cnc2n(C)c1=O.Cn1c(=O)c2[nH]cnc2n(C)c1=O.NCCN [AMINOPHYLLINE]
Not Active: IC50 [1] | Ki [1] | IC50 [2] | IC50 [3] | Ki [3] | IC50 [4] | IC50 [5] | IC50 [6]

CCC1(CCC(C)C)C(=O)NC(=O)NC1=O [AMOBARBITAL]
Not Active: IC50 [1] | Ki [1] | IC50 [2] | IC50 [3] | Ki [3] | IC50 [4] | IC50 [5] | IC50 [6]

CC1(C)S[C@@H]2[C@H](NC(=O)[C@H](N)c3ccccc3)C(=O)N2[C@H]1C(=O)O [AMPICILLIN]
Not Active: IC50 [1] | Ki [1] | IC50 [2] | IC50 [3] | Ki [3] | IC50 [4] | IC50 [5] | IC50 [6]

COc1ccc(C2C(=O)c3ccccc3C2=O)cc1 [ANISINDIONE]
Not Active: IC50 [1] | Ki [1] | IC50 [2] | IC50 [3] | Ki [3] | IC50 [4] | IC50 [5] | IC50 [6]

O=C1O[C@H]([C@@H](O)CO)C(O)=C1O [ASCORBIC ACID]
Not Active: IC50 [1] | Ki [1] | IC50 [2] | IC50 [3] | Ki [3] | IC50 [4] | IC50 [5] | IC50 [6]

CN1[C@@H]2CC[C@H]1C[C@@H](OC(=O)C(CO)c1ccccc1)C2 (stereo not given in full) [ATROPINE]
Not Active: IC50 [1] | Ki [1] | IC50 [2] | IC50 [4] | IC50 [5] | IC50 [6]
